According to ChEMBL document CHEMBL1201862, “PubChem BioAssay data set” (2004):
Active and inactive are the calls of the source.

Columns and labels:
[1] = biological target: Glyceraldehyde-3-phosphate dehydrogenase (Homo sapiens, UniProt P04406)
[2] = biological target: T1, Alkaline phosphatase, tissue-nonspecific isozyme (Homo sapiens, UniProt P05186); experiment: human TNAP enzyme inhibitors, SAR follow-up, biochemical, luminescent, dose response (AID 1056)
T1 sequence (P05186 whole entry): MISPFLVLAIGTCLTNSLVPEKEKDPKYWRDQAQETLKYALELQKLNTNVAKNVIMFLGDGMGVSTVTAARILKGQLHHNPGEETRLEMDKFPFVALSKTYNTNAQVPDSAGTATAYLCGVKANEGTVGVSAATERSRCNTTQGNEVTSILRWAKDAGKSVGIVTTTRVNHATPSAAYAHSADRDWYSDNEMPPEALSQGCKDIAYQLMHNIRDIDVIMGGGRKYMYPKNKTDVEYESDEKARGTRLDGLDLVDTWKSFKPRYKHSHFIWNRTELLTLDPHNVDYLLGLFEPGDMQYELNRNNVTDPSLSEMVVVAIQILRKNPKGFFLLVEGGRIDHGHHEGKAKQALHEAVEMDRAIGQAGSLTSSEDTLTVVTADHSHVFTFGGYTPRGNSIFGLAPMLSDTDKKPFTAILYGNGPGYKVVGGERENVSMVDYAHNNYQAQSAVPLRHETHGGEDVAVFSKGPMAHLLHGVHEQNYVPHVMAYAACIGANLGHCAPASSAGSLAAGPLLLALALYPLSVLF

[3] = biological target: T2, Ubiquitin-conjugating enzyme E2 N (Homo sapiens, UniProt P61088); assay type: functional
T2 sequence (P61088 whole entry): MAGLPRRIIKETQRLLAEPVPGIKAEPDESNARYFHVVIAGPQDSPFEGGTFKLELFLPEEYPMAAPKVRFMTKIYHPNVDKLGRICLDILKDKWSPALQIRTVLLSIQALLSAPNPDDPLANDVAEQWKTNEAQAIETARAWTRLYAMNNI

Bcl-2-related protein A1 = biological target: T3, Bcl-2-related protein A1 (Mus musculus, UniProt Q07440); assay type: functional;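 note: confirmatory dose–response counterscreen on Bfl-1, used to check hits from a UBC13 polyubiquitin inhibitor campaign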
T3 sequence (Q07440 whole entry): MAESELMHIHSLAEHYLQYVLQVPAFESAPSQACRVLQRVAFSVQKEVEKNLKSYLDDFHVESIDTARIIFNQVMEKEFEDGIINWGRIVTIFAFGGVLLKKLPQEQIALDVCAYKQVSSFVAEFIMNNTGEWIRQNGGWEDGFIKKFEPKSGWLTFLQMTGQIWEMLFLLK

[4] = biological target: T2, Ubiquitin-conjugating enzyme E2 N; assay type: functional; remark: listed apart in the source
[5] = HEp-2 cell cytotoxicity, dose response, cytotoxicity control for RSV inhibitor project, HTS (AID 2410); assay type: functional; conditions: human respiratory syncytial virus
SUMO-activating enzyme [6] = biological target: T4, SUMO-activating enzyme (Homo sapiens, UniProt Q9UBT2); experiment: SUMOylation inhibitor hit validation, confirmation, SUMOylation inhibitor project, biochemical, AlphaScreen (AID 2018); assay type: functional
SUMO-activating enzyme [7] = biological target: T4, SUMO-activating enzyme; experiment: inhibitors of in vitro SUMOylation cascade, primary screen, biochemical, HTRF, uHTS (AID 2006); assay type: protein-complex assay
[8] = biological target: T5, DNA repair protein RAD52 homolog (Homo sapiens, UniProt P43351); assay type: functional, biochemical
T5 sequence (P43351 whole entry): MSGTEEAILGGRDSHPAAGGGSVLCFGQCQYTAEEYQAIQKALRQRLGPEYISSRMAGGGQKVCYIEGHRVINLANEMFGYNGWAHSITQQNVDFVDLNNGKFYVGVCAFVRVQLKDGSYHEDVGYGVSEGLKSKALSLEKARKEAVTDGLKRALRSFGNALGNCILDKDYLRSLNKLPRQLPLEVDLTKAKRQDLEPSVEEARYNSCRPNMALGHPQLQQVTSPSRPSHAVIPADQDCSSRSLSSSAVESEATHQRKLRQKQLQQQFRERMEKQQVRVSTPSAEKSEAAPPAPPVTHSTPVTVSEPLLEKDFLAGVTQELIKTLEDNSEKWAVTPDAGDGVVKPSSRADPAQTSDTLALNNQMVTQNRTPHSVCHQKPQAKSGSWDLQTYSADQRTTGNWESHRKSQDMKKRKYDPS

[9] = biological target: Eukaryotic translation initiation factor 4E (Mus musculus, UniProt P63073); experiment: eIF4E–eIF4G protein interaction inhibitors, dose response, biochemical, TR-FRET (AID 855); assay type: functional;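 note: potency for disrupting eIF4E binding to eIF4GI seen as loss of FRET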
[10] = biological target: T6, Replicative DNA helicase DnaB (Mycobacterium tuberculosis, UniProt P9WMR3); experiment: DnaB intein splicing inhibitors, dose response, biochemical, cell-free fluorescence (AID 449749); assay type: functional
T6 sequence (P9WMR3 whole entry): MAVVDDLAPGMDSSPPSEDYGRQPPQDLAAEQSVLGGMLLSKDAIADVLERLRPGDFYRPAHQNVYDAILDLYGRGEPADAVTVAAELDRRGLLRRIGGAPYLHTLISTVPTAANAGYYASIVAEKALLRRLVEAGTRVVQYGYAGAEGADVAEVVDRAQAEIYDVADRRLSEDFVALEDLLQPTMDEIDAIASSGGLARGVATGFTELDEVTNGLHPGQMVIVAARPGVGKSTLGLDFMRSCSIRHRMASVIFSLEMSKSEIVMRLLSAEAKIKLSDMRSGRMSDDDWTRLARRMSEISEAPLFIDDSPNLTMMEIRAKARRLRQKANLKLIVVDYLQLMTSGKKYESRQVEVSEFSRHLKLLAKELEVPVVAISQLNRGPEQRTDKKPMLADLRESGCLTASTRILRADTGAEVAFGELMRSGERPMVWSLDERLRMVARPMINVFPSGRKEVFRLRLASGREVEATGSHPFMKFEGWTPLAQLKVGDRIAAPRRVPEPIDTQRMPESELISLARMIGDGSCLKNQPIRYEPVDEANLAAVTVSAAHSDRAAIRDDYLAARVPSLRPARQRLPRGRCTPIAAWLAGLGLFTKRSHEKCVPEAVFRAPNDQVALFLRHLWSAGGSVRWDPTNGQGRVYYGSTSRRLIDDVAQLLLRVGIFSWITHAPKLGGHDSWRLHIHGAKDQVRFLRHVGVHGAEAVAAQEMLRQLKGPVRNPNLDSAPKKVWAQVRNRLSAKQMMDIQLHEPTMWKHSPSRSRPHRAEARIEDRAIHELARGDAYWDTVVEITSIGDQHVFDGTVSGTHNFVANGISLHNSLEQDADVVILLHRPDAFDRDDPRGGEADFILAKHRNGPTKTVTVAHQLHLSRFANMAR

Protein RecA = biological target: T7, Protein RecA (Mycobacterium tuberculosis, UniProt P9WHJ3); experiment: Fluorescence Cell-Free Homogeneous Dose Retest to Identify Inhibitors of RecA-Intein Splicing Activity. [Related pubchem assays (depositor defined):AID2097, AID2223, AID489010, AID492950]; assay type: functional
T7 sequence (P9WHJ3 whole entry): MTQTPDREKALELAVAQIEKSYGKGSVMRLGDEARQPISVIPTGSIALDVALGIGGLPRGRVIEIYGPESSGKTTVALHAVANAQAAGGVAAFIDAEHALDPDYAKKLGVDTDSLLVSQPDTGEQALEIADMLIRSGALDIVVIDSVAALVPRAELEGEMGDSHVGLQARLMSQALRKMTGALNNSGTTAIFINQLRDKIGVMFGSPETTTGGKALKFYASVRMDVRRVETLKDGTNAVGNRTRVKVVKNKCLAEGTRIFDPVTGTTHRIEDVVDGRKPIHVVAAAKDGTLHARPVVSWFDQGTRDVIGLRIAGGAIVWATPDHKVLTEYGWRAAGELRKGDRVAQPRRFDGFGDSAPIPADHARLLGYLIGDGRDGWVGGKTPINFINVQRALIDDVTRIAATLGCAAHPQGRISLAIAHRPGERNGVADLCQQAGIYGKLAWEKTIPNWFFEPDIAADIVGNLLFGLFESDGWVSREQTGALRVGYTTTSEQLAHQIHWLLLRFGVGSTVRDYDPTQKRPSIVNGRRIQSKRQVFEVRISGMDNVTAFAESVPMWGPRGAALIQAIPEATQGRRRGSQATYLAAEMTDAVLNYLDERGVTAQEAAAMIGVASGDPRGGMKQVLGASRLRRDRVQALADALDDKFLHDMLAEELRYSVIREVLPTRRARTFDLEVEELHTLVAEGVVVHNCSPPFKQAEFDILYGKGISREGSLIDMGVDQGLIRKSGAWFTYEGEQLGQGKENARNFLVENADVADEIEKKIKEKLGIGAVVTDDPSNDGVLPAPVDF

[11] = biological target: Induced myeloid leukemia cell differentiation protein Mcl-1 (Homo sapiens, UniProt Q07820); assay type: functional
[12] = biological target: T8, Heat shock factor protein 1 (Mus musculus, UniProt P38532); experiment: HSF1 potentiators in luciferase reporter cells, confirmation, cell-based, NIH3T3, luminescence, dose retest (AID 435004); assay type: functional;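 note: stress induced by proteasome inhibitor MG132 added 30 min after compound; luciferase reporter driven by HSF1 response element in NIH3T3 cells; actives raise luminescence as potentiators of the MG132 stress response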
T8 sequence (P38532 whole entry): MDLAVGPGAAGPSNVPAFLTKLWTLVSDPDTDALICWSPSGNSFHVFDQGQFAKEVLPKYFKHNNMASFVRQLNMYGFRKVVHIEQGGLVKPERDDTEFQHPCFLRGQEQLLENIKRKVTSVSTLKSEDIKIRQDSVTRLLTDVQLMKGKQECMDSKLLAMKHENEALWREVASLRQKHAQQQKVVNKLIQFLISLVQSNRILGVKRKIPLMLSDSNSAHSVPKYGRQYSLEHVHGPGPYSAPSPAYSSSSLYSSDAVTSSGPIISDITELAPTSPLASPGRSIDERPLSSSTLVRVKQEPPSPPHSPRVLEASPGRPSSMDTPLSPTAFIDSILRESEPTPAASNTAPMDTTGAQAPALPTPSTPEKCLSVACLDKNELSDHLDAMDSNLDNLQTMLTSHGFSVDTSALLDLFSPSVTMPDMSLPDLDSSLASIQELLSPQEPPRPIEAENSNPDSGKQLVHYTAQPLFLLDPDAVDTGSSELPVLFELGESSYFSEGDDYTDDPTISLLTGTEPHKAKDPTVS

[13] = biological target: T9, Carboxy-terminal domain RNA polymerase II polypeptide A small phosphatase 1 (Homo sapiens, UniProt Q9GZU7); experiment: inhibitors of CTDSP1, concentration-response testing, biochemical assay, absorbance-based, actives from ultra-high-throughput screening (AID 540297); assay type: functional
T9 sequence (Q9GZU7 whole entry): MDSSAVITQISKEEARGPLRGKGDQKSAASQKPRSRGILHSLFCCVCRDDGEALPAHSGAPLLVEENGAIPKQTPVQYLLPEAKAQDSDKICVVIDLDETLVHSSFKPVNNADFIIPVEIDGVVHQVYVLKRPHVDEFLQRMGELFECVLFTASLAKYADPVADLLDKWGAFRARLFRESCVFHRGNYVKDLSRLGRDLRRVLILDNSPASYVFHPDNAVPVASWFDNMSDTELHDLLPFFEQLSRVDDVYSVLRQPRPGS

cells [14] = assay type: functional, cell-based
[15] = THP-1 cell cytotoxicity, dose response, cytotoxicity control for non-replicating M. tuberculosis project (AID 489025); assay type: functional
cells [16] = assay type: functional, cell-based; remark: listed apart in the source
[17] = HepG2 cell cytotoxicity, dose response, cytotoxicity control for non-replicating M. tuberculosis project (AID 489018); assay type: functional; conditions: Mycobacterium tuberculosis
[18] = Vero E6 cell cytotoxicity, dose response, cytotoxicity control for non-replicating M. tuberculosis project, secondary assay (AID 492998); assay type: functional, VeroE6; conditions: Vero C1008

T4 sequence (Q9UBE0 whole entry): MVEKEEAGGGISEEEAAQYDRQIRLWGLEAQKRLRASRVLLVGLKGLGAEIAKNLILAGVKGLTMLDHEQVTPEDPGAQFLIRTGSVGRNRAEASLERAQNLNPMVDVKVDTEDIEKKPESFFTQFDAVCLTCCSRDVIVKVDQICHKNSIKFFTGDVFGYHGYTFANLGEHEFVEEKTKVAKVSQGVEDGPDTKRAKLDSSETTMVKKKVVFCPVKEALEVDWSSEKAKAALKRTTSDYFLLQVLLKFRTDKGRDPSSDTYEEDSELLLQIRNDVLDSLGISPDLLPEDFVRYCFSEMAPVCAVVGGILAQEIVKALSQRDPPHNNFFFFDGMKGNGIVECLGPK
T4 sequence (Q9UBT2 whole entry): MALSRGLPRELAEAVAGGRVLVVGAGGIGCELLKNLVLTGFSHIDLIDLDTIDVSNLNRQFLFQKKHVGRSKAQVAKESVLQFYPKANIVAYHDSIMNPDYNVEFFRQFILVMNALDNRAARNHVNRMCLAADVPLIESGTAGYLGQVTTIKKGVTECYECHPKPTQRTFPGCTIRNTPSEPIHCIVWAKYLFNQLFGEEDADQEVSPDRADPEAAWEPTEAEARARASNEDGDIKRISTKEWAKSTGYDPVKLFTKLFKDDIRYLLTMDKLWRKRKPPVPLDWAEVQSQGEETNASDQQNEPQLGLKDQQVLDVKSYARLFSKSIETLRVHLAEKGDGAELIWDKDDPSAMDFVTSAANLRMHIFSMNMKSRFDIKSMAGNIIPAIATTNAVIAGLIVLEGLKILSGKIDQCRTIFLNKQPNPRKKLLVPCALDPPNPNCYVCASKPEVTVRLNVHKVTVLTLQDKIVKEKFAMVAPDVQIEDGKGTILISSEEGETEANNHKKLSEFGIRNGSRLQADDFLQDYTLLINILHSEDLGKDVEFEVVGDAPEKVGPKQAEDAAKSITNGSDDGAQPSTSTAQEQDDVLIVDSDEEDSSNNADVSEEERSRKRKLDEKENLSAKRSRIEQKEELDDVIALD
Chain of Eukaryotic translation initiation factor 4E (P63073 whole entry): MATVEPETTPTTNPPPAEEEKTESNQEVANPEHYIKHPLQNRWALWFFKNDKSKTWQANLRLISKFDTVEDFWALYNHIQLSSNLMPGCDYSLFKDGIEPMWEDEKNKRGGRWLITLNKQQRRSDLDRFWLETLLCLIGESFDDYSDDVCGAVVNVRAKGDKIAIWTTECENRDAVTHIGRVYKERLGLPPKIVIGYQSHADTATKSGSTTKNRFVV
Chain of Glyceraldehyde-3-phosphate dehydrogenase (P04406 whole entry): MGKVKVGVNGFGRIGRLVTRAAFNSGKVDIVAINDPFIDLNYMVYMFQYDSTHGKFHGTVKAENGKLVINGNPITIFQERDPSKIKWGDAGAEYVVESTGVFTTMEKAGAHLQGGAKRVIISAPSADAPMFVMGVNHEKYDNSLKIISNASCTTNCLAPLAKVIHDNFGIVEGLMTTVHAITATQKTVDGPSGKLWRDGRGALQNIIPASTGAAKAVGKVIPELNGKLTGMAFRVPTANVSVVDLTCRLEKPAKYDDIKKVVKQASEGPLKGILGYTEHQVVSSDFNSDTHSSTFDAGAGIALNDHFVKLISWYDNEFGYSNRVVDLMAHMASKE
Chain of Induced myeloid leukemia cell differentiation protein Mcl-1 (Q07820 whole entry): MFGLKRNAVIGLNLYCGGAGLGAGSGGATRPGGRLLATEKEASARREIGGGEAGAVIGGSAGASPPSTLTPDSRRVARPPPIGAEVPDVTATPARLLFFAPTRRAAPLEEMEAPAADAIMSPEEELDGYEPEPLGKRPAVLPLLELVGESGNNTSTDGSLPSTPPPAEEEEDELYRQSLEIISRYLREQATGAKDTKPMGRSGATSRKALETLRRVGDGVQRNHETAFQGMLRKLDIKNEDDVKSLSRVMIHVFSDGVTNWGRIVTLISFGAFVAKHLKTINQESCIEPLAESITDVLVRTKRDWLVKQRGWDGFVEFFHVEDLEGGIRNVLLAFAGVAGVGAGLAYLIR

In the case of `O=S(=O)(Nc1ccncn1)c1ccccc1`, the IC50 [1] is reported as > 100 µM (not active) and the IC50 [2] is reported as > 100 µM (inactive).

In the case of `COc1ccc(Cn2c(SCC(=O)NCc3ccco3)nc3ccsc3c2=O)cc1`, the IC50 [3] is reported as 10.4 µM (active), the IC50 (Bcl-2-related protein A1) is reported as > 20 µM (inactive) and the IC50 [4] is reported as 14.4 µM (active).

For `Cc1ccccc1C(=O)N1CCN(c2ccc(NC(=S)NC(=O)c3cccs3)cc2)CC1`, the IC50 [3] was 10.8 µM (active), the IC50 (Bcl-2-related protein A1) was > 20 µM (inactive) and the IC50 [4] was 15.6 µM (active).

With `Cc1ccc(C2=NN(C(=O)CCC(=O)O)C(c3cn(-c4ccccc4)nc3-c3ccc(C)cc3)C2)cc1` (stereo unspecified) the CC50 [5] was 24.8 µM (active), the IC50 (SUMO-activating enzyme [6]) was 4.8 µM (active) and the IC50 (SUMO-activating enzyme [7]) was 20.1 µM (active).

With `COC(=O)c1cc(-c2ccc(OC)cc2)[nH]n1` the IC50 [1] was > 100 µM (not active) and the IC50 [2] was 2.33 µM (active).

With `CN1CCN(CCCNC(=O)c2ccc(/C=C3\Sc4ccccc4N(Cc4ccc(F)cc4)C3=O)cc2)CC1` the AC50 [8] was 8.2 µM (active) and the IC50 [9] was 50 µM (inactive).

For `Nc1ccc(N)c(C(=O)O)c1`, the AC50 [10] was 6.81 µM (active), the EC50 (Protein RecA) was 3.76 µM (active) and the IC50 [11] was 1.59 µM (active). The IC50 [9] was 13.4 µM (active).

In the case of `CC(OC(=O)c1cc(-c2ccc(Br)cc2)[nH]n1)C(=O)NC(C)(C)C` (stereo unspecified), the IC50 [1] is reported as > 100 µM (not active) and the IC50 [2] is reported as 19.5 µM (active).

In the case of `CCC(OCC(O)CN1CCN(CCN2C(=O)c3cccc4cccc(c34)C2=O)CC1)c1ccccc1` (stereo unspecified), the IC50 [3] is reported as 12.4 µM (active), the IC50 (Bcl-2-related protein A1) is reported as > 20 µM (inactive) and the IC50 [4] is reported as 9.26 µM (active).

In the case of `O=C(N/N=C/c1ccc([N+](=O)[O-])o1)c1cc2c(ccc3ccccc32)o1`, the IC50 (SUMO-activating enzyme [6]) is reported as 28.4 µM (active), the IC50 (SUMO-activating enzyme [7]) is reported as 11 µM (active) and the IC50 [9] is reported as 50 µM (inactive).

In the case of `O=C(N/N=C/c1ccc(-c2cccc([N+](=O)[O-])c2)o1)c1ccccc1O`, the IC50 (SUMO-activating enzyme [6]) is reported as 16.3 µM (active), the IC50 (SUMO-activating enzyme [7]) is reported as 15.9 µM (active) and the EC50 [12] is reported as > 260 µM (inactive). The IC50 [13] was 3.68 µM (active).

For `O=C(CCc1ccccc1)N/N=C/c1cc(Br)ccc1O`, the EC50 (cells [14]) was 261 µM (active), the CC50 [15] was 6.36 µM (active) and the EC50 (cells [16]) was 286 µM (active). For the same compound, the CC50 [17] was 13.5 µM (active) and the CC50 [18] was 12.3 µM (active).
